According to patent US20250388565A1, “ESTROGEN RECEPTOR ALPHA DEGRADERS AND METHODS OF USE THEREOF” (Relay Therapeutics, Inc., priority 2022, published 2025):

Target: T1, ERα protein (HiBiT-tagged) in ESR1_HiBiT KI MCF7 cells (Homo sapiens, UniProt P03372)
T1 sequence (P03372 1-595): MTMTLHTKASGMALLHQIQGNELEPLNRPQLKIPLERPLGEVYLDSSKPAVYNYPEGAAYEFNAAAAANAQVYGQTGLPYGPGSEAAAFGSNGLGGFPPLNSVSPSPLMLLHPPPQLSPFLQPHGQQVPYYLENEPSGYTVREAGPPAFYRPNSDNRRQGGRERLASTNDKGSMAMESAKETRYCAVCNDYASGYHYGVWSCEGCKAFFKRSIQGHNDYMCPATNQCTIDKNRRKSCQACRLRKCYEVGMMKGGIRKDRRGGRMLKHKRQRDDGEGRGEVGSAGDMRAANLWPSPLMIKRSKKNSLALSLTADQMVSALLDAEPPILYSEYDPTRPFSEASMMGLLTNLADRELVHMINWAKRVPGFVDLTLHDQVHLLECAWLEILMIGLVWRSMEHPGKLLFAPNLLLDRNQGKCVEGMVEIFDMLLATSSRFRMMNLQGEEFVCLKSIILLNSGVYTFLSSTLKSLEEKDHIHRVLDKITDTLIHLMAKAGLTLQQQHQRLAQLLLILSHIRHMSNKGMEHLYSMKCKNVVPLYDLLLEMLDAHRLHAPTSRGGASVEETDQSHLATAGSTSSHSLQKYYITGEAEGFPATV
Assay: Nano Glo HiBiT Lytic Degradation Assay
Format: cell-based
Settings: 6 hours with compound, 14-point dose response 1:3, bell-shape curve fit, half-maximal effect of first Hill model, read-out: MCF7 ESR1 HiBiT - (DC50)
Method: Selected compounds of the present disclosure were tested in a Nano Glo HiBiT Lytic Degradation Assay to measure the level of ERα protein degradation in MCF7 cells.
Cell culture: ESR1_HiBiT KI MCF7 cells were maintained in growth media without antibiotics. Cells were maintained in exponential growth phase, between 40% and 90% confluency.
Cell seeding: Cells were counted using a Vi-Cell and seeded in a 384-well flat-bottom microplate (cell culture-treated) at 4000 cells/well in 25 μL of growth medium using a BioTek MultiFlo Multimode Dispenser. Plates were incubated for 24 h at 37° C., 5% CO2, >95% relative humidity.
Compound preparation: Compounds were screened as 14-point dose response curves 1:3 dilutions. DMSO is used as the vehicle control and all wells were normalized to the same final DMSO concentration (0.1% v/v). Compounds were dosed using an Echo Acoustic Liquid Handler, 25 nL of 1000× (10 mM top concentration) DMSO stock/well. Cells were incubated with compounds for 6 hours at 37° C., 5% CO2, >95% relative humidity. Each compound was run in duplicate.
Nano Glo HiBiT Lytic Degradation Assay: HiBiT-tagged ERα protein levels were quantified using a Nano Glo HiBiT Lytic Degradation Assay following the manufacturer's protocol. Briefly, the Nano-Glo® HiBiT Lytic Reagent was prepared by diluting the LgBiT Protein reagent (1:100) and the Nano-Glo® HiBiT Lytic Substrate (1:50) into Nano-Glo® HiBiT Lytic Buffer at room temperature. The 384-well microplate were equilibrated to room temperature and 25 μL of Nano-Glo® HiBiT Lytic Reagent was added to each well. Samples were mixed by placing the 384-well microplate on an orbital shaker for 10 minutes. Luminescence was measured using an EnVision 2105 Multimode Plate Reader.
Data processing and analysis: Background signal (wells containing growth medium without cells) was subtracted from individual relative light units (RLU) values and the resulting values were normalized to the DMSO control well values. Dose responses were analyzed with Genedata Screener® using a bell-shape curve fit and the concentrations corresponding to the half-maximal effect of the first Hill model were used as DC50 values.

## O=C1CC[C@H](N2Cc3cc(N4CCN(CC5CCN(c6ccc([C@H]7c8ccc(O)cc8CO[C@H]7c7ccc(O)cc7)cc6)CC5)CC4)ccc3C2=O)C(=O)N1 (single isomer, unassigned) [Compound I-360]
  DC50: 0.38 nM

## O=C1CCC(N2Cc3cc([C@@H]4CCN(CC5CCN(c6ccc([C@@H]7c8ccc(O)cc8CC[C@@H]7c7ccccc7)cc6)CC5)C[C@H]4F)ccc3C2=O)C(=O)N1 (single isomer, unassigned) [II-88]
  DC50: 2 nM

## O=C1CC[C@H](N2Cc3cc(N4C[C@@H]5C[C@H]4CN5CC4CCN(c5ccc([C@@H]6c7ccc(O)cc7CC[C@@H]6c6ccccc6)cc5)CC4)ccc3C2=O)C(=O)N1 [II-7]
  DC50: ≥ 10000 nM

## Cn1c(=O)n([C@@H]2CCC(=O)NC2=O)c2ccc(N3CCN(CC4CCN(c5ccc([C@@H]6c7ccc(O)cc7CO[C@@H]6c6ccccc6)cc5)CC4)CC3)cc21 (single isomer, unassigned) [Compound I-388]
  DC50: 40 nM

## O=C1CCN(c2ccc(N3CCC4(CCN(CC5CCN(c6ccc([C@@H]7c8ccc(O)cc8CO[C@@H]7c7ccccc7)cc6)CC5)C4)CC3)cc2)C(=O)N1 [Compound I-391, 1-(4-(2-((1-(4-((3S,4R)-7-hydroxy-3-phenylisochroman-4-yl)phenyl)piperidin-4-yl)methyl)-2,8-diazaspiro[4.5]decan-8-yl)phenyl)dihydropyrimidine-2,4 (1H,3H)-dione]
  DC50: 0.42 nM

## O=C1CC(N2Cc3cc(N4CCN(CC5CCN(c6ccc([C@@H]7c8ccc(O)cc8CC[C@@H]7c7ccccc7)cc6)CC5)CC4)ccc3C2=O)C(=O)N1 (stereo partly drawn) [Compound I-274, 3-(5-(4-((1-(4-((1R,2S)-6-hydroxy-2-phenyl-1,2,3,4-tetrahydronaphthalen-1-yl)phenyl)piperidin-4-yl)methyl)piperazin-1-yl)-1-oxoisoindolin-2-yl) pyrrolidine-2,5-dione]
  DC50: 1 nM

## O=C1CC[C@H](N2Cc3cc(N4CCN(CC5CCN(c6ccc([C@@H]7c8ccc(O)cc8CC[C@@]78CCCc7ccccc78)cc6)CC5)CC4)ccc3C2=O)C(=O)N1 [Compound I-264, (S)-3-(5-(4-((1-(4-((1S,1′S)-6′-hydroxy-3,3′,4,4′-tetrahydro-1′H,2H-1,2′-spirobi[naphthalen]′-yl)phenyl)piperidin-4-yl)methyl)piperazin-1-yl)-1-oxoisoindolin-2-yl)piperidine-2,6-dione]
  DC50: 0.43 nM

## Cc1cc(F)cc(C)c1[C@H]1CCc2cc(O)ccc2[C@H]1c1ccc(N2CCC(CN3CCN(c4ccc5c(c4)CN([C@H]4CCC(=O)NC4=O)C5=O)CC3)CC2)cc1 [II-72]
  DC50: ≥ 10000 nM

## O=C1CC[C@H](N2Cc3cc(N4CCN(CC5CCN(c6ccc([C@@H]7c8ccc(O)cc8C(F)(F)C[C@@H]7c7ccc(F)cc7F)cc6)CC5)CC4)ccc3C2=O)C(=O)N1 [Compound I-318, (S)-3-(5-(4-((1-(4-((1R,2S)-2-(2,4-difluorophenyl)-4,4-difluoro-6-hydroxy-1,2,3,4-tetrahydronaphthalen-1-yl)phenyl)piperidin-4-yl)methyl)piperazin-1-yl)-1-oxoisoindolin-2-yl)piperidine-2,6-dione]
  DC50: 0.33 nM

## Cn1nc(C2CCC(=O)NC2=O)c2ccc(N3CCN(CC4CCN(c5ccc([C@@H]6c7ccc(O)cc7C(F)(F)C[C@@H]6c6ccccc6)cc5)CC4)CC3)cc21 (single isomer, unassigned) [Compound I-297]
  DC50: 0.74 nM

## Cn1ccc([C@H]2CCc3cc(O)ccc3[C@H]2c2ccc(N3CCC(CN4CCN(c5ccc6c(c5)CN([C@H]5CCC(=O)NC5=O)C6=O)CC4)CC3)cc2)n1 (single isomer, unassigned) [Compound I-28]
  DC50: ≥ 10000 nM

## O=C1CC[C@H](N2Cc3cc(N4CCN(CC5CCN(c6ccc([C@H]7c8ccc(O)cc8CO[C@H]7c7ccc8c(c7)CC8)cc6)CC5)CC4)ccc3C2=O)C(=O)N1 (single isomer, unassigned) [Compound I-364]
  DC50: ≥ 10000 nM

## C[C@H]1CN(c2ccc3c(c2)CN([C@H]2CCC(=O)NC2=O)C3=O)CCN1CC1CCN(c2ccc([C@H]3c4ccc(O)cc4CC[C@H]3c3ccccc3)cc2)CC1 (single isomer, unassigned) [II-11]
  DC50: ≥ 10000 nM

## CC[C@H]1CCc2cc(O)ccc2[C@H]1c1ccc(N2CCC(CN3CCN(c4ccc5c(c4)CN([C@H]4CCC(=O)NC4=O)C5=O)CC3)CC2)cc1 (single isomer, unassigned) [Compound I-111]
  DC50: 332 nM

## Cn1nc(C2CCC(=O)NC2=O)c2ccc(N3CCN(CC4CCN(c5ccc([C@@H]6c7ccc(O)cc7CC[C@@H]6c6ccccc6)cc5)CC4)CC3)cc21 (stereo partly drawn) [Compound I-188, 3-(6-(4-((1-(4-((1R,2S)-6-hydroxy-2-phenyl-1,2,3,4-tetrahydronaphthalen-1-yl)phenyl)piperidin-4-yl)methyl)piperazin-1-yl)-1-methyl-1H-indazol-3-yl)piperidine-2,6-dione]
  DC50: 1.23 nM

## O=C1CC[C@H](N2Cc3cc(N4CCN(CC5CCN(c6ccc([C@@H]7c8ccc(B(O)O)cc8CC[C@@H]7c7ccccc7)cc6)CC5)CC4)ccc3C2=O)C(=O)N1 [Compound I-45, ((5R,6S)-5-(4-(4-((4-(2-((S)-2,6-dioxopiperidin-3-yl)-1-oxoisoindolin-5-yl)piperazin-1-yl)methyl)piperidin-1-yl)phenyl)-6-phenyl-5,6,7,8-tetrahydronaphthalen-2-yl)boronic acid]
  DC50: 3 nM

## O=C1CC[C@@H](c2ccc(N3CCC4(CCN(CC5CCN(c6ccc([C@@H]7c8ccc(O)cc8CO[C@@H]7c7ccccc7)cc6)CC5)C4)CC3)cc2)C(=O)N1 (single isomer, unassigned) [Compound I-390]
  DC50: 22 nM

## O=C1CC[C@H](N2Cc3cc(N4CCN(CC5CCN(c6ccc([C@H]7c8ccc(O)cc8CC[C@H]7C7CCCCC7)nc6)CC5)CC4)ccc3C2=O)C(=O)N1 [Compound I-150, (S)-3-(5-(4-((1-(6-((1R,2S)-2-cyclohexyl-6-hydroxy-1,2,3,4-tetrahydronaphthalen-1-yl)pyridin-3-yl)piperidin-4-yl)methyl)piperazin-1-yl)-1-oxoisoindolin-2-yl)piperidine-2,6-dione]
  DC50: ≥ 10000 nM

## O=C1CC[C@H](N2Cc3cc(N4CCN(CC5CCN(c6ccc([C@H]7c8ccc(O)cc8C(F)(F)C[C@H]7c7ccccc7)nc6)CC5)CC4)ccc3C2=O)C(=O)N1 [Compound I-337, (S)-3-(5-(4-((1-(6-((1R,2R)-4,4-difluoro-6-hydroxy-2-phenyl-1,2,3,4-tetrahydronaphthalen-1-yl)pyridin-3-yl)piperidin-4-yl)methyl)piperazin-1-yl)-1-oxoisoindolin-2-yl)piperidine-2,6-dione]
  DC50: ≥ 10000 nM

## O=C1CC[C@H](N2Cc3cc(N4CCN(CC5CCN(c6ccc([C@H]7c8ccc(O)cc8CC[C@H]7c7ccc(C(F)(F)F)cc7)cc6)CC5)CC4)ccc3C2=O)C(=O)N1 (single isomer, unassigned) [II-41]
  DC50: 2 nM

## Cc1cccc([C@H]2CCc3cc(O)ccc3[C@H]2c2ccc(N3CCC(CN4CCN(c5ccc6c(c5)CN([C@H]5CCC(=O)NC5=O)C6=O)CC4)CC3)cc2)c1 (single isomer, unassigned) [II-28]
  DC50: 20 nM

## O=C1CCC(c2ccc3c(c2)C[C@H](N2CCN(CC4CCN(c5ccc([C@@H]6c7ccc(O)cc7CC[C@@H]6c6ccccc6)cc5)CC4)CC2)CC3)C(=O)N1 (single isomer, unassigned) [Compound I-423]
  DC50: ≥ 10000 nM

## O=C1CCC(N2Cc3cc([C@H]4CCN(CC5CCN(c6ccc([C@@H]7c8ccc(O)cc8CC[C@@H]7c7ccccc7)cc6)CC5)C[C@@H]4O)ccc3C2=O)C(=O)N1 (single isomer, unassigned) [II-107]
  DC50: 3.91 nM
